{
  "source": "patent US20250134887A1",
  "about": "“METHODS OF TREATING PROSTATE CANCER” (AstraZeneca AB, priority 2022, published 2025)",
  "origin": "cited, not measured here",
  "test_system": "patients with mCRPC harboring BRCA1, BRCA2 and ATM mutations",
  "conditions": "disease had progressed on NHA; vs. enzalutamide or abiraterone; cited from earlier work",
  "data": [
    {"smiles": "O=C(c1cc(Cc2n[nH]c(=O)c3ccccc23)ccc1F)N1CCN(C(=O)C2CC2)CC1", "note": "[olaparib, 4-[(3-{[4-(cyclopropane-carbonyl)piperazine-1-yl]carbonyl}-4-fluorophenyl)methyl]-2H-phthalazin-1-one]", "values": [
      {"measurement": "imaging-based progression-free survival and overall survival", "value": "imaging-based progression-free survival and overall survival benefits"}
    ]}
  ]
}
